Results published in US20170143701A1, “CARBOHYDRATE METABOLISM-AMELIORATING AGENT” (SUNTORY HOLDINGS LIMITED, priority 2014, published 2017).

Experiments:
[1] = test system: NCI-H716 cells; experiment: In vitro GLP-1 secretion-accelerating action: amount of active GLP-1 secreted (ELISA); format: cell-based; details: 1 hour; for Significant difference (p < 0.05) vs control group, amount of active GLP-1 secreted: 10 mM, Student's t-test; for Amount of active GLP-1 secreted (relative value to control group as 100), average value: cyclic dipeptide 10 mM with 10 μM Sitagliptin phosphate, group with no cyclic dipeptide = 100
Protocol: Among the cyclic dipeptides, 92 highly water-soluble cyclic dipeptides were used in the following experiment. In each well of a Poly-L-Lysine 96-well plate, NCI-H716 cells suspended in 100 μL of a DMEM (with 10% FBS, 2 mM glutamine, and 1% antibiotics added in advance) were seeded at 0.5×10^5 cells/well, and cultured in a CO2 incubator (manufactured by ESPEC CORP.) for 48 hours. After washing with PBS(+), 100 μL of a PBS(+) solution with each cyclic dipeptide at a final concentration of 10 mM and 10 μM of Sitagliptin phosphate added therein was added to the cells. After 1 hour, the resultant solution was recovered, and the amount of active GLP-1 in the solution was measured by using the ELISA kit. In the analysis, the amount of active GLP-1 for a group with no cyclic dipeptide added was defined as 100, and relative values thereto were used.

[2] = test system: C57/BL6J mice; experiment: In vivo plasma GLP-1 level-increasing action: plasma active GLP-1 level (ELISA) after oral administration; details: 10 mg/kg oral; for Significant difference (p < 0.05) vs control group, plasma active GLP-1 level: 30 minutes, Student's t-test; for Plasma active GLP-1 level (relative value to control group as 100), average value: blood 30 minutes after, 0.5% CMC-Na group = 100
Protocol: Seven-week-old male C57/BL6J mice were purchased from CLEA Japan, Inc. for use, and they were subjected to an experiment after 1 week of a habituation period.
After the habituation period, the mice were subjected to 5.5 hours of food deprivation and 2 hours of water deprivation. Thereafter, a cyclic dipeptide dissolved or suspended in a 0.5% CMC-Na aqueous solution in 10 mg/kg was orally administered to each mouse forcibly. After 30 minutes, the blood was collected from the abdominal vena cava under anesthesia, and 1 μL of heparin sodium and 1 μL of 10 mM Sitagliptin phosphate were added to each collected blood, which was then subjected to centrifugation at 8000 rpm for 10 minutes to recover the plasma, and the plasma active GLP-1 level was measured by using the ELISA kit. In the analysis, the active GLP-1 level for a group administered with 0.5% CMC-Na aqueous solution was defined as 100, and relative values thereto were used.

## O=C1NCC(=O)N2CCC[C@@H]12 [compound 4, cyclo-glycyl-proline]
[1]; Table 5, Experiment 5
  Significant difference (p < 0.05) vs control group, amount of active GLP-1 secreted: Yes
  Amount of active GLP-1 secreted (relative value to control group as 100), average value: 157

## N=C(N)NCCC[C@@H]1NC(=O)[C@H](CCCNC(=N)N)NC1=O [compound 212, cyclo-arginyl-arginine]
[1]; Table 4, Experiment 4
  Significant difference (p < 0.05) vs control group, amount of active GLP-1 secreted: Yes
  Amount of active GLP-1 secreted (relative value to control group as 100), average value: 1050

## CC[C@H](C)[C@@H]1NC(=O)[C@@H]2CCCN2C1=O [compound 47, Cyclo(Ile-Pro)]
[1]; Table 2, Experiment 2
  Significant difference (p < 0.05) vs control group, amount of active GLP-1 secreted: No
  Amount of active GLP-1 secreted (relative value to control group as 100), average value: 79

## C[C@H](O)[C@@H]1NC(=O)[C@H](CCCN=C(N)N)NC1=O [compound 168, Cyclo(Arg-Thr)]
[1]; Table 3, Experiment 3
  Significant difference (p < 0.05) vs control group, amount of active GLP-1 secreted: No
  Amount of active GLP-1 secreted (relative value to control group as 100), average value: 142

## O=C1NC(CO)C(=O)N2CCCC12 (stereo not drawn) [compound 46, Cyclo(Ser-Pro)]
[1]; Table 2, Experiment 2
  Significant difference (p < 0.05) vs control group, amount of active GLP-1 secreted: No
  Amount of active GLP-1 secreted (relative value to control group as 100), average value: 139

## NCCCC[C@@H]1NC(=O)[C@H](CO)NC1=O [compound 98, cyclo-seryl-lysine]
[1]; Table 3, Experiment 3
  Significant difference (p < 0.05) vs control group, amount of active GLP-1 secreted: Yes
  Amount of active GLP-1 secreted (relative value to control group as 100), average value: 71

## CC(O)C1NC(=O)CNC1=O (stereo not drawn) [compound 116, Cyclo(Thr-Gly)]
[1]; Table 3, Experiment 3
  Significant difference (p < 0.05) vs control group, amount of active GLP-1 secreted: No
  Amount of active GLP-1 secreted (relative value to control group as 100), average value: 146

## NC(=O)CC[C@@H]1NC(=O)[C@H](CCC(=O)O)NC1=O [compound 130, Cyclo(Gln-Glu)]
[1]; Table 3, Experiment 3
  Significant difference (p < 0.05) vs control group, amount of active GLP-1 secreted: No
  Amount of active GLP-1 secreted (relative value to control group as 100), average value: 120

## NC(=O)CCC1NC(=O)C(CCC(N)=O)NC1=O (stereo not drawn) [compound 176, Cyclo(Gln-Gln)]
[1]; Table 4, Experiment 4
  Significant difference (p < 0.05) vs control group, amount of active GLP-1 secreted: No
  Amount of active GLP-1 secreted (relative value to control group as 100), average value: 111

## NC(=O)C[C@@H]1NC(=O)[C@H](CC(=O)O)NC1=O [compound 170, Cyclo(Asn-Asp)]
[1]; Table 3, Experiment 3
  Significant difference (p < 0.05) vs control group, amount of active GLP-1 secreted: No
  Amount of active GLP-1 secreted (relative value to control group as 100), average value: 125

## O=C1CNC(=O)CN1 [compound 2, Cyclo(Gly-Gly)]
[1]; Table 5, Experiment 5
  Significant difference (p < 0.05) vs control group, amount of active GLP-1 secreted: No
  Amount of active GLP-1 secreted (relative value to control group as 100), average value: 151

## CSCCC1NC(=O)C(CC(N)=O)NC1=O (stereo not drawn) [compound 175, cyclo-asparaginyl-methionine]
[1]; Table 4, Experiment 4
  Significant difference (p < 0.05) vs control group, amount of active GLP-1 secreted: Yes
  Amount of active GLP-1 secreted (relative value to control group as 100), average value: 218

## NC(=O)CCC1NC(=O)C2CCCN2C1=O (stereo not drawn) [compound 188, Cyclo(Gln-Pro)]
[1]; Table 4, Experiment 4
  Significant difference (p < 0.05) vs control group, amount of active GLP-1 secreted: No
  Amount of active GLP-1 secreted (relative value to control group as 100), average value: 132

## NC(=O)CCC1NC(=O)C(CC(=O)O)NC1=O (stereo not drawn) [compound 171, Cyclo(Gln-Asp)]
[1]; Table 3, Experiment 3
  Significant difference (p < 0.05) vs control group, amount of active GLP-1 secreted: No
  Amount of active GLP-1 secreted (relative value to control group as 100), average value: 120

## NCCCCC1NC(=O)C(CCCCN)NC1=O (stereo not drawn) [compound 40, Cyclo(Lys-Lys)]
[1]; Table 1, Experiment 1
  Significant difference (p < 0.05) vs control group, amount of active GLP-1 secreted: No
  Amount of active GLP-1 secreted (relative value to control group as 100), average value: 164

## NCCCCC1NC(=O)CNC1=O (stereo not drawn) [compound 96, cyclo-lysyl-glycine]
[1]; Table 3, Experiment 3
  Significant difference (p < 0.05) vs control group, amount of active GLP-1 secreted: Yes
  Amount of active GLP-1 secreted (relative value to control group as 100), average value: 133

## NC(=O)CC[C@@H]1NC(=O)CNC1=O [compound 36, Cyclo(Gln-Gly)]
[1]; Table 5, Experiment 5
  Significant difference (p < 0.05) vs control group, amount of active GLP-1 secreted: No
  Amount of active GLP-1 secreted (relative value to control group as 100), average value: 75

## NC(N)=NCCC[C@@H]1NC(=O)[C@H](Cc2cnc[nH]2)NC1=O [compound 112, Cyclo(Arg-His)]
[1]; Table 3, Experiment 3
  Significant difference (p < 0.05) vs control group, amount of active GLP-1 secreted: No
  Amount of active GLP-1 secreted (relative value to control group as 100), average value: 106

## CSCCC1NC(=O)C(CC(=O)O)NC1=O (stereo not drawn) [compound 172, Cyclo(Met-Asp)]
[1]; Table 4, Experiment 4
  Significant difference (p < 0.05) vs control group, amount of active GLP-1 secreted: No
  Amount of active GLP-1 secreted (relative value to control group as 100), average value: 141

## CC(O)C1NC(=O)C(CCC(=O)O)NC1=O (stereo not drawn) [compound 157, Cyclo(Thr-Glu)]
[1]; Table 3, Experiment 3
  Significant difference (p < 0.05) vs control group, amount of active GLP-1 secreted: No
  Amount of active GLP-1 secreted (relative value to control group as 100), average value: 139

## N=C(N)NCCC[C@@H]1NC(=O)[C@H](Cc2c[nH]c3ccccc23)NC1=O [compound 189, cyclo-tryptophanyl-arginine]
[1]; Table 4, Experiment 4
  Significant difference (p < 0.05) vs control group, amount of active GLP-1 secreted: Yes
  Amount of active GLP-1 secreted (relative value to control group as 100), average value: 314

## NC(N)=NCCC[C@@H]1NC(=O)CNC1=O [compound 117, Cyclo(Arg-Gly)]
[1]; Table 3, Experiment 3
  Significant difference (p < 0.05) vs control group, amount of active GLP-1 secreted: No
  Amount of active GLP-1 secreted (relative value to control group as 100), average value: 98

## O=C1N[C@@H](Cc2c[nH]c3ccccc23)C(=O)N2CCC[C@@H]12 [compound 57, Cyclo(Trp-Pro)]
[1]; Table 2, Experiment 2
  Significant difference (p < 0.05) vs control group, amount of active GLP-1 secreted: No
  Amount of active GLP-1 secreted (relative value to control group as 100), average value: 81

## NC(=O)CC[C@@H]1NC(=O)[C@H](CO)NC1=O [compound 136, Cyclo(Gln-Ser)]
[1]; Table 3, Experiment 3
  Significant difference (p < 0.05) vs control group, amount of active GLP-1 secreted: No
  Amount of active GLP-1 secreted (relative value to control group as 100), average value: 251

## CC1NC(=O)C(C(C)O)NC1=O (stereo not drawn) [compound 114, Cyclo(Thr-Ala)]
[1]; Table 3, Experiment 3
  Significant difference (p < 0.05) vs control group, amount of active GLP-1 secreted: No
  Amount of active GLP-1 secreted (relative value to control group as 100), average value: 89

## CC(C)[C@@H]1NC(=O)[C@H](CCCCN)NC1=O [compound 99, cyclo-valyl-lysine]
[1]; Table 3, Experiment 3
  Significant difference (p < 0.05) vs control group, amount of active GLP-1 secreted: Yes
  Amount of active GLP-1 secreted (relative value to control group as 100), average value: 532

## NCCCC[C@@H]1NC(=O)[C@H](CC(N)=O)NC1=O [compound 101, cyclo-asparaginyl-lysine]
[1]; Table 3, Experiment 3
  Significant difference (p < 0.05) vs control group, amount of active GLP-1 secreted: Yes
  Amount of active GLP-1 secreted (relative value to control group as 100), average value: 250

## CC(C)CC1NC(=O)C(C(C)O)NC1=O (stereo not drawn) [compound 105, Cyclo(Thr-Leu)]
[2]; Table 13, Experiment 8
  Significant difference (p < 0.05) vs control group, plasma active GLP-1 level: No
  Plasma active GLP-1 level (relative value to control group as 100), average value: 94

## CC(C)CC1NC(=O)C(CO)NC1=O (stereo not drawn) [compound 151, cyclo-seryl-leucine]
[2]; Table 15, Experiment 10
  Significant difference (p < 0.05) vs control group, plasma active GLP-1 level: Yes
  Plasma active GLP-1 level (relative value to control group as 100), average value: 259

## NC(=O)CC1NC(=O)C(Cc2c[nH]c3ccccc23)NC1=O (stereo not drawn) [compound 81, Cyclo(Trp-Asn)]
[2]; Table 11, Experiment 6
  Significant difference (p < 0.05) vs control group, plasma active GLP-1 level: No
  Plasma active GLP-1 level (relative value to control group as 100), average value: 100

## CSCC[C@@H]1NC(=O)[C@H](CC(C)C)NC1=O [compound 72, Cyclo(Met-Leu)]
[2]; Table 11, Experiment 6
  Significant difference (p < 0.05) vs control group, plasma active GLP-1 level: No
  Plasma active GLP-1 level (relative value to control group as 100), average value: 90

## CC[C@H](C)C1NC(=O)[C@H](CC(N)=O)NC1=O (stereo partly drawn) [compound 163, cyclo-asparaginyl-isoleucine]
[2]; Table 15, Experiment 10
  Significant difference (p < 0.05) vs control group, plasma active GLP-1 level: Yes
  Plasma active GLP-1 level (relative value to control group as 100), average value: 327

## O=C(O)CCC1NC(=O)C(CS)NC1=O (stereo not drawn) [compound 179, cyclo-glutamyl-cysteine]
[2]; Table 15, Experiment 10
  Significant difference (p < 0.05) vs control group, plasma active GLP-1 level: Yes
  Plasma active GLP-1 level (relative value to control group as 100), average value: 304

## CCC(C)C1NC(=O)C(Cc2ccccc2)NC1=O (stereo not drawn) [compound 55, Cyclo(Ile-Phe)]
[2]; Table 10, Experiment 5
  Significant difference (p < 0.05) vs control group, plasma active GLP-1 level: No
  Plasma active GLP-1 level (relative value to control group as 100), average value: 90

## O=C1NC(Cc2cnc[nH]2)C(=O)NC1Cc1ccc(O)cc1 (stereo not drawn) [compound 85, Cyclo(His-Tyr)]
[2]; Table 11, Experiment 6
  Significant difference (p < 0.05) vs control group, plasma active GLP-1 level: No
  Plasma active GLP-1 level (relative value to control group as 100), average value: 90

## CC(C)C1NC(=O)C(CCC(=O)O)NC1=O (stereo not drawn) [compound 118, Cyclo(Val-Glu)]
[2]; Table 13, Experiment 8
  Significant difference (p < 0.05) vs control group, plasma active GLP-1 level: No
  Plasma active GLP-1 level (relative value to control group as 100), average value: 112
